Source: ChEMBL document CHEMBL1909046, “DrugMatrix in vitro pharmacology data”

Experiments:
[1] = target: Tyrosine-protein kinase Lck (Homo sapiens, UniProt P06239); assay: DRUGMATRIX: Protein Tyrosine Kinase, LCK enzyme inhibition (substrate: Poly(Glu:Tyr)); format: cell-based, Insect cells; details: Not Active = under 50% inhibition at 10 µM
[2] = target: Carbonic anhydrase 2 (Homo sapiens, UniProt P00918); assay: DRUGMATRIX: Carbonic Anhydrase II enzyme inhibition (substrate: 4-Nitrophenyl acetate (4-NPA)); format: tissue-based, Erythrocyte; details: erythrocyte; Not Active = under 50% inhibition at 10 µM
[3] = target: Beta-2 adrenergic receptor (Homo sapiens, UniProt P07550); assay: DRUGMATRIX: Adrenergic beta2 radioligand binding (ligand: [3H] CGP-12177); format: cell membranes, Membrane; details: cho; Not Active = under 50% inhibition at 10 µM
Sequence of Beta-2 adrenergic receptor (P07550 whole entry): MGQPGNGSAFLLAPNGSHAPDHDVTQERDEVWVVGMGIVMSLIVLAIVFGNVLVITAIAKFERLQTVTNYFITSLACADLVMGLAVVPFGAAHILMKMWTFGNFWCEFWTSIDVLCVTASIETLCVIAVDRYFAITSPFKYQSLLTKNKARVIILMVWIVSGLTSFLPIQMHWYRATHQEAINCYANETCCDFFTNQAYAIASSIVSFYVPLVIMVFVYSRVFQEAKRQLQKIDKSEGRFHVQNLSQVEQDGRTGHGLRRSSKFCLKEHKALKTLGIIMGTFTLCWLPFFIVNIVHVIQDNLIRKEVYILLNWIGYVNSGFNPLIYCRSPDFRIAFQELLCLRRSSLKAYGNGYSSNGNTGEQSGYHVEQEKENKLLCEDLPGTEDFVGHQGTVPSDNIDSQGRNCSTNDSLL

[4] = DRUGMATRIX: Glutamate, Kainate radioligand binding (ligand: [3H] Kainic acid); format: cell membranes, Rattus norvegicus, Wistar, Brain, Membrane; details: Not Active = under 50% inhibition at 10 µM
[5] = target: C-C chemokine receptor type 2 (Homo sapiens, UniProt P41597); format: cell membranes, CHO-K1, Membrane; details: cho-k1; note: in other assays of this panel Not Active means under 50% inhibition at 10 µM
Sequence of C-C chemokine receptor type 2 (P41597 whole entry): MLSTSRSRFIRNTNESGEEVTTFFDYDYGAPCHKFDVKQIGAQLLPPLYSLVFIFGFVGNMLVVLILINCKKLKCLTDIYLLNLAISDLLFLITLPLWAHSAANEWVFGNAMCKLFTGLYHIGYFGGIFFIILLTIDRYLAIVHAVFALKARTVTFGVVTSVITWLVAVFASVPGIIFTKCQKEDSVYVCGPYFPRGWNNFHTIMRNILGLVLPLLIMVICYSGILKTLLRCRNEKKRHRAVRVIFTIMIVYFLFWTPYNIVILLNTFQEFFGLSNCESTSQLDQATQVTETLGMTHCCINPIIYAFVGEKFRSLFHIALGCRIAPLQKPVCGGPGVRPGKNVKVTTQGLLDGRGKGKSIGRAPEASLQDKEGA

[6] = target: T1, C-X-C chemokine receptor type 2 (Homo sapiens, UniProt P25025); format: cell membranes, Membrane; details: cho-k1; note: in other assays of this panel Not Active means under 50% inhibition at 10 µM
T1 sequence (P25025 whole entry): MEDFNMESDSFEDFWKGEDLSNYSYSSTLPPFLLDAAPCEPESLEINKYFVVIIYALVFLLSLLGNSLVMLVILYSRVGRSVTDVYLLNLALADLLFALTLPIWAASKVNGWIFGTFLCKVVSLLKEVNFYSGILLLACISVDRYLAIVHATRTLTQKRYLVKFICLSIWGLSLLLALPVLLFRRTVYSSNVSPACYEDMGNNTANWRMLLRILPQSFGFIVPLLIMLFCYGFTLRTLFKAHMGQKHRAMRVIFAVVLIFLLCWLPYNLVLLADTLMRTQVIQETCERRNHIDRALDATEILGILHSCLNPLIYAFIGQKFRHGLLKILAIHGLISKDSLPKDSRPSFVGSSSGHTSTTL

[7] = target: T2, Cysteinyl leukotriene receptor 1 (Homo sapiens, UniProt Q9Y271); format: cell membranes, CHO-K1, Membrane; details: cho-k1; note: in other assays of this panel Not Active means under 50% inhibition at 10 µM
T2 sequence (Q9Y271 whole entry): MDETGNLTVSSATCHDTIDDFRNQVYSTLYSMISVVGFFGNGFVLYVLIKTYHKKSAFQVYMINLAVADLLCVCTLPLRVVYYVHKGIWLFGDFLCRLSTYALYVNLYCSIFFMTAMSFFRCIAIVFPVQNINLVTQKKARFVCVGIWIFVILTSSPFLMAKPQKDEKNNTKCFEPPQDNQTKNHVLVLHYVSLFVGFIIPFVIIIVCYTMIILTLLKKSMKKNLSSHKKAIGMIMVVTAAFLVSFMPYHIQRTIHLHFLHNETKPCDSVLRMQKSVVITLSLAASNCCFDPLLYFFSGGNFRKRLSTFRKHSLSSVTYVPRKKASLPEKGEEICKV

[8] = target: Beta-3 adrenergic receptor (Homo sapiens, UniProt P13945); assay: DRUGMATRIX: Adrenergic beta3 radioligand binding (ligand: [125I] Cyanopindolol); format: cell membranes, HEK293, Membrane; details: hek293; Not Active = under 50% inhibition at 10 µM
Sequence of Beta-3 adrenergic receptor (P13945 whole entry): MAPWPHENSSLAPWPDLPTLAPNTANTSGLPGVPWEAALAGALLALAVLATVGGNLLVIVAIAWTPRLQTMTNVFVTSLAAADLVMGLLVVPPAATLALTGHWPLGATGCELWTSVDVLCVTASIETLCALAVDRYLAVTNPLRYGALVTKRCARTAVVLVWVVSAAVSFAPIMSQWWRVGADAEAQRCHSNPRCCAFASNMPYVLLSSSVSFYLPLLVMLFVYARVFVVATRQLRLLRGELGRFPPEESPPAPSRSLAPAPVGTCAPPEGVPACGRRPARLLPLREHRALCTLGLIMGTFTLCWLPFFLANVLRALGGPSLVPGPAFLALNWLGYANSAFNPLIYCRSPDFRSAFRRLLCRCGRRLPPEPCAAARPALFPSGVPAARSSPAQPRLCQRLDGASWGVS

[9] = target: Platelet-activating factor receptor (Homo sapiens, UniProt P25105); assay: biochemical; format: tissue-based; details: platelet; note: in other assays of this panel Not Active means under 50% inhibition at 10 µM
Sequence of Platelet-activating factor receptor (P25105 whole entry): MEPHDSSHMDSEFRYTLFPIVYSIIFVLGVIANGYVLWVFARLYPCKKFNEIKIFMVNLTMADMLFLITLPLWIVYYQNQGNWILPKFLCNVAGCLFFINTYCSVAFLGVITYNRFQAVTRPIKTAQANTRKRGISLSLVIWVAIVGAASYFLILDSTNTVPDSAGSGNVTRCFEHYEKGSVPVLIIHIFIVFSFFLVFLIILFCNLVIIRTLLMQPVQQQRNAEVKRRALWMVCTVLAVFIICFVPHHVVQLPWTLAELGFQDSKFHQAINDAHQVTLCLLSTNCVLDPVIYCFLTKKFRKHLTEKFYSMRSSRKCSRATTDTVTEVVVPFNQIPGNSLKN

[10] = target: Kappa-type opioid receptor (Homo sapiens, UniProt P41145); assay: DRUGMATRIX: Opiate kappa (OP2, KOP) radioligand binding (ligand: [3H] Diprenorphine); format: cell membranes, HEK293, Membrane; details: hek293; Not Active = under 50% inhibition at 10 µM
Sequence of Kappa-type opioid receptor (P41145 whole entry): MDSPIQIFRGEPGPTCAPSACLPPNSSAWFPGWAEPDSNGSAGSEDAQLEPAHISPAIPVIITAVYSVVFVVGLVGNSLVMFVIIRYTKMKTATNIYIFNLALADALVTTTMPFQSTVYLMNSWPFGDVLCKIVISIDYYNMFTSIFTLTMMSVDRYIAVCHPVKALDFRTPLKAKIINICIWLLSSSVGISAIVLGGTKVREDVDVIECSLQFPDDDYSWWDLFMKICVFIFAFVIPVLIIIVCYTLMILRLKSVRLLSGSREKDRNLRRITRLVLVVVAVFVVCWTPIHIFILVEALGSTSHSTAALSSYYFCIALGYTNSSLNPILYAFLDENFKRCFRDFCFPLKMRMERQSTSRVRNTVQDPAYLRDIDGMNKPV

[11] = target: Glycine receptor (Rattus norvegicus, UniProt P22771+P24524+P07727+P20781); format: cell membranes, Wistar, Spinal cord, Membrane; note: in other assays of this panel Not Active means under 50% inhibition at 10 µM
[12] = target: T3, Thromboxane-A synthase (Homo sapiens, UniProt P24557); assay: biochemical; format: tissue-based, Platelet
T3 sequence (P24557 whole entry): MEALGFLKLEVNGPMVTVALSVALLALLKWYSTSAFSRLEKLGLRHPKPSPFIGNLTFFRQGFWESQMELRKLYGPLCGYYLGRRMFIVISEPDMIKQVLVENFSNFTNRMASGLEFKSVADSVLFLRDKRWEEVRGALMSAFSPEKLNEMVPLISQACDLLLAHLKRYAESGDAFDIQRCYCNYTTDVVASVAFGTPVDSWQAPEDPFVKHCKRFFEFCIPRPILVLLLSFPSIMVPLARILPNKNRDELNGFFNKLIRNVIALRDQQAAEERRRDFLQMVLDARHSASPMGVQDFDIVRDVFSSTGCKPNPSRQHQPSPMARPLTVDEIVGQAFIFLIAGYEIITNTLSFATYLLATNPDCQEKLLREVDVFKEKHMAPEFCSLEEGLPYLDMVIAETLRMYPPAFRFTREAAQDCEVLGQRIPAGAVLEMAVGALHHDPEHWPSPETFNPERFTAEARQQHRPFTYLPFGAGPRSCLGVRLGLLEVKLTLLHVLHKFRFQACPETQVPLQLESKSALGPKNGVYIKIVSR

Sequence of Tyrosine-protein kinase Lck (P06239 whole entry): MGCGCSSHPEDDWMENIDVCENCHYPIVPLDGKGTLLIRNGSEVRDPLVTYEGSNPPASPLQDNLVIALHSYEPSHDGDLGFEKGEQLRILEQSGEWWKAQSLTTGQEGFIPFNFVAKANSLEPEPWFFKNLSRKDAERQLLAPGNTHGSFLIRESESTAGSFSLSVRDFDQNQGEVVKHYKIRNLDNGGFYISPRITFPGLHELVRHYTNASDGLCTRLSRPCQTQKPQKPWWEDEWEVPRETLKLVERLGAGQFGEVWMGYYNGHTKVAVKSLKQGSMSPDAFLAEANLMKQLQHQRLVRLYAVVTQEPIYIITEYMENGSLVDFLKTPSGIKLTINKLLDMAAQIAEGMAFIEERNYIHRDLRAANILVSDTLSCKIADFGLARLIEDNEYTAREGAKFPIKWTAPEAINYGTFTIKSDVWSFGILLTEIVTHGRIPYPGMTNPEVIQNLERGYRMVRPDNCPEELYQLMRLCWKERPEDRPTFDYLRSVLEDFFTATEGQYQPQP

Compound: Nc1nnc(-c2cccc(Cl)c2Cl)c(N)n1 [LAMOTRIGINE]
- IC50 ([1]; insect cells): Not Active
- IC50 [2]: Not Active
- IC50 [3]: Not Active
- IC50 [4]: Not Active
- Ki [4]: Not Active
- IC50 [5]: Not Active
- IC50 [6]: Not Active
- IC50 [7]: Not Active
- IC50 [8]: Not Active
- IC50 [9]: Not Active
- IC50 [10]: Not Active
- IC50 [11]: Not Active
- IC50 ([12]; platelet): Not Active

Compound: NC(=O)c1ccccc1O [SALICYLAMIDE]
- IC50 ([1]; insect cells): Not Active
- IC50 [2]: Not Active
- IC50 [3]: Not Active
- IC50 [4]: Not Active
- Ki [4]: Not Active
- IC50 [5]: Not Active
- IC50 [6]: Not Active
- IC50 [7]: Not Active
- IC50 [8]: Not Active
- IC50 [9]: Not Active
- IC50 [10]: Not Active
- IC50 [11]: Not Active
- IC50 ([12]; platelet): Not Active

Compound: C=CC[C@@H]1/C=C(\C)C[C@H](C)C[C@H](OC)[C@H]2O[C@@](O)(C(=O)C(=O)N3CCCC[C@H]3C(=O)O[C@H](/C(C)=C/[C@@H]3CC[C@@H](O)[C@H](OC)C3)[C@H](C)[C@@H](O)CC1=O)[C@H](C)C[C@@H]2OC [TACROLIMUS ANHYDROUS]
- IC50 ([1]; insect cells): Not Active
- IC50 [2]: Not Active
- IC50 [3]: Not Active
- IC50 [4]: Not Active
- Ki [4]: Not Active
- IC50 [5]: Not Active
- IC50 [6]: Not Active
- IC50 [7]: Not Active
- IC50 [8]: Not Active
- IC50 [9]: Not Active
- IC50 [10]: Not Active
- IC50 [11]: Not Active
- IC50 ([12]; platelet): Not Active

Compound: c1ccc2[nH]c(-c3cscn3)nc2c1 [THIABENDAZOLE]
- IC50 ([1]; insect cells): Not Active
- IC50 [2]: Not Active
- IC50 [3]: Not Active
- IC50 [4]: Not Active
- Ki [4]: Not Active
- IC50 [5]: Not Active
- IC50 [6]: Not Active
- IC50 [7]: Not Active
- IC50 [8]: Not Active
- IC50 [9]: Not Active
- IC50 [10]: Not Active
- IC50 [11]: Not Active
- IC50 ([12]; platelet): Not Active

Compound: CC(C)(C)NC(=O)[C@@H]1CN(Cc2cccnc2)CCN1C[C@@H](O)C[C@@H](Cc1ccccc1)C(=O)N[C@H]1c2ccccc2C[C@H]1O.O
- IC50 ([1]; insect cells): Not Active
- IC50 [2]: Not Active
- IC50 [3]: Not Active
- IC50 [4]: Not Active
- Ki [4]: Not Active
- IC50 [5]: Not Active
- IC50 [6]: Not Active
- IC50 [7]: Not Active
- IC50 [8]: Not Active
- IC50 [9]: Not Active
- IC50 [10]: Not Active
- IC50 [11]: Not Active
- IC50 ([12]; read-out: IC50): 1850 nM

Compound: COC(=O)[C@@H]1[C@H]2C[C@H]3c4[nH]c5ccccc5c4CCN3C[C@@H]2CC[C@@H]1O [YOHIMBINE]
- IC50 ([1]; insect cells): Not Active
- IC50 [2]: Not Active
- IC50 [3]: Not Active
- IC50 [4]: Not Active
- Ki [4]: Not Active
- IC50 [5]: Not Active
- IC50 [6]: Not Active
- IC50 [7]: Not Active
- IC50 [8]: Not Active
- IC50 [9]: Not Active
- IC50 [10]: Not Active
- IC50 [11]: Not Active
- IC50 ([12]; platelet): Not Active

Compound: Clc1ccc(C(c2ccccc2Cl)C(Cl)Cl)cc1 (configuration not stated) [MITOTANE]
- IC50 ([1]; insect cells): Not Active
- IC50 [2]: Not Active
- IC50 [3]: Not Active
- IC50 [4]: Not Active
- Ki [4]: Not Active
- IC50 [5]: Not Active
- IC50 [6]: Not Active
- IC50 [7]: Not Active
- IC50 [8]: Not Active
- IC50 [9]: Not Active
- IC50 [10]: Not Active
- IC50 [11]: Not Active
- IC50 ([12]; platelet): Not Active

Compound: Oc1c(I)cc(I)c2cccnc12 [IODOQUINOL]
- IC50 ([1]; read-out: IC50): 2460 nM
- IC50 [2]: Not Active
- IC50 [3]: Not Active
- IC50 [4]: Not Active
- Ki [4]: Not Active
- IC50 [5]: Not Active
- IC50 [6]: Not Active
- IC50 [7]: Not Active
- IC50 [8]: Not Active
- IC50 [9]: Not Active
- IC50 [10]: Not Active
- IC50 [11]: Not Active
- IC50 ([12]; platelet): Not Active

Compound: CN[C@@H]1[C@@H](O)[C@@H](O[C@@H]2[C@@H](O)[C@H](O[C@H]3OC(CN)=CC[C@H]3N)[C@@H](N)C[C@H]2N)OC[C@]1(C)O [SISOMICIN]
- IC50 ([1]; insect cells): Not Active
- IC50 [2]: Not Active
- IC50 [3]: Not Active
- IC50 [4]: Not Active
- Ki [4]: Not Active
- IC50 [5]: Not Active
- IC50 [6]: Not Active
- IC50 [7]: Not Active
- IC50 [8]: Not Active
- IC50 [9]: Not Active
- IC50 [10]: Not Active
- IC50 [11]: Not Active
- IC50 ([12]; platelet): Not Active
